Data on two molecules can be found in patent publication US10543183B2, “Treatment and diagnosis of melanoma” (The Rockefeller University, priority 2012, dated 2020).

Assay [1] relates to breast cancer, renal cell cancer and pancreatic cancer cell lines. Description: endothelial recruitment by other cancer types. The format is cell-based, human.
Assay [2] has as its system VEGF-induced endothelial recruitment. The assay is described as follows: in vivo matrigel plug assay. The arrangement: species or system mouse. Particulars: VEGF 400 ng/mL + 10 μg/mL. How it is done: 10 μg/mL recombinant human ApoE3 (4696, BioVision), 10 μg/mL BSA (A2153, Sigma Aldrich), or 400 ng/ml VEGF were mixed with matrigel (356231, BD Biosciences) as indicated. 400 μL of matrigel containing the indicated recombinant proteins were injected subcutaneously just above the ventral flank of immunocompromised NOD-SCID mice. Plugs were extracted on day 3 post-injection and fixed in 4% paraformaldehyde for 48 hours. Plugs were then paraffin-embedded and sectioned at 5-μm-thick increments. Plug cross-sectional sections were immunohistochemically stained using a primary antibody against the mouse endothelial antigen MECA-32 (Developmental Studies Hybridoma Bank, The University of Iowa, IA), detected by peroxidase-conjugated secondary antibody, and subsequently visualized by DAB oxidization. To quantify the extent of endothelial cell invasion into each matrigel plug, the number of endothelial cells was counted in 4-5 random fields for each plug, and the average number of endothelial cells per given plug area was calculated.

For assay [3], the system named is MeWo-LM2 cells or endothelial cells. The assay is described as follows: serum starvation assay. The format is cell-based, human. Particulars: 100 μM, 0.2% FBS. As for the experimental part: The number of viable cells was counter after 8, 16, and 24 hours.
Assay [4] deals with MeWo, SK-Mel-2, SK-Mel-334.2, SK-Mel-239 human melanoma cells. Description: subcutaneous human melanoma tumor growth in immunocompromised mice. The format is in vivo, mouse.
In assay [5] the test system is MeWo human melanoma tumors. Description: tumor histochemistry (MECA-32, Ki-67, cleaved caspase-3). The format is in vivo, mouse. An excerpt: Animals were intracardially perfused with PBS followed by 4% paraformaldehyde (PFA). Fixed lungs were embedded in paraffin and sectioned into 5-μm-thick increments. Macroscopic lung metastatic nodules were visualized by H&E staining. For analysis of tumor endothelial cell content, proliferation, and apoptosis, primary tumor paraffin-embedded sections were stained with antibodies against MECA-32 (Developmental Studies Hybridoma Bank, University of Iowa), KI-67 (ab15580, Abcam), and cleaved caspase-3 (9661, Cell Signaling), respectively.
Tumors were excised from mice and fixed in 4% paraformaldehyde at 4° C. for 48 hours. Then, tumors were paraffin-embedded and sectioned into 5-μm-thick increments. For endothelial cell content analysis in tumors, tumor sections were stained with a primary antibody against the mouse endothelial cell marker MECA-32 (Developmental Studies Hybridoma Bank, The University of Iowa, IA) and counterstained with DAPI nuclear stain. To determine tumor cell proliferation and apoptosis, tumor sections were stained with antibodies against the proliferative marker Ki-67 (Abcam, ab15580, Cambridge, Mass.) and the apoptotic marker cleaved caspase-3 (9661, Cell Signaling, Danvers, Mass.), respectively. Various Alexa Flour dye-conjugated secondary antibodies were used to detect primary antibodies. […] Endothelial cell content density and tumor proliferation rate were quantified by calculating the average percentage of MECA-32 or Ki-67 positively-staining area out of the total tumor area. Tumor apoptosis was measured by counting the number of cleaved caspase-3 expressing cells per given tumor area.

Assay [6] deals with Tyr::CreER; B-RafV600E/+; Ptenlox/+ and Ptenlox/lox mice. Description: genetically-initiated model of melanoma progression. The format is in vivo, mouse. How it is done: The Tyr::CreER; B-Raf^V600E/+; Pten^lox/+/Tyr::CreER; B-Raf^V600E/+; Pten^lox/lox conditional model of melanoma progression was previously established and characterized by Dankort et al. (2009). Briefly, melanoma in these mice was induced at 6 weeks of age by intraperitoneally injecting 4-HT (H6278, 70% isomer, Sigma-Aldrich, St Louis, Mo.) at 25 mg/kg administered in peanut oil on three consecutive days. The 4-HT stock solution was prepared by dissolving it in 100% EtOH at 50 mg/mL by heating at 45° C. for 5 min and mixing. Once dissolved, the stock 4-HT solution was then diluted by 10-fold in peanut oil, yielding a 5 mg/mL 4-HT working solution that was then injected into mice. After the first 4-HT injection, mice were blindedly assigned to receive either a control diet or a diet supplemented with GW3965 (100 mg/kg). Mice were examined three times a week for the presence and progression of melanoma lesions. At day 35, dorsal skin samples were harvested from control-treated and GW3965-treated mice, fixed in 4% PFA and photographed at 10×. The percentage of pigmented melanoma lesion area out of the total skin area was quantified using ImageJ. For survival analyses, mice were monitored daily for melanoma progression and euthanized according to a standard body condition score, taking into account initial signs of moribund state and discomfort associated with the progression of melanoma burden. Post-mortem, the lungs, brains, and salivary glands were harvested and examined for the presence of macroscopic melanoma lesions.

Counter-ions that a name gives are not always drawn.

As for “recombinant ApoE3: recombinant human ApoE3 (4696, BioVision)”, in assay [1], the “endothelial recruitment across breast, renal cell and pancreatic cancer” value is “inhibited”. Further, in assay [2], the “suppression of VEGF-induced endothelial recruitment into subcutaneous matrigel plugs” value is on record as “greater than 40 fold”. The “survival in serum starvation conditions” value in assay [3] was “did not affect”.

On to `O=C(O)Cc1cccc(OCCCN(Cc2cccc(C(F)(F)F)c2Cl)CC(c2ccccc2)c2ccccc2)c1` [GW3965 2, 3-[3-[N-(2-Chloro-3-trifluoromethylbenzyl)-(2,2-diphenylethyl)amino]propyloxy] phenylacetic acid hydrochloride], for which, in assay [4] (B16F10, MeWo, SK-Mel-334.2 tumors, chow 100 mg/kg), the “overall survival time of tumor-bearing mice” value is on record as “substantially prolonged”. Also, in assay [4] (diet 100 mg/kg), the “suppression of growth of SK-Mel-239 vemurafenib-resistant line” value amounted to 72% and the “survival of mice bearing vemurafenib-resistant melanoma burden” value is “significantly prolonged”. For the same molecule, in assay [4] (oral administration), the “tumor growth inhibition, MeWo” value is given as 70%; the “tumor growth inhibition, SK-Mel-2” value worked out at 49%; the “tumor growth inhibition, SK-Mel-334.2” value was 73%. Also, the “growth of in vivo-derived DTIC-resistant MeWo tumors” value in assay [4] (oral, diet 100 mg/kg) is given as “strongly inhibited”. In addition, the “decrease in number of actively proliferating tumor cells in vivo” value in assay [5] (Ki-67) came out at 23%. Moreover, the “number of apoptotic cells” value in assay [5] (cleaved caspase-3) was “without a change”. In assay [5] (diet 20 mg/kg, 35 days, MECA-32), the “reduction in endothelial cell content of tumors” value is on record as “roughly 2 fold”. The “number of lymphatic metastases detected post-mortem” value in assay [6] (Ptenlox/lox mice, chow 100 mg/kg) is “decrease”. Further, the tumor progression result in assay [6] (oral, diet 100 mg/kg after melanoma initiation) is reported as “attenuated”. The overall survival times entry in assay [6] (oral, diet 100 mg/kg, Ptenlox/+ and Ptenlox/lox mice) is “significantly extended”.
